Results published in patent US20150265682A1, “THERAPEUTIC METHODS AND COMPOSITIONS FOR TREATING DIABETES” (Orient Europharma Co., Ltd., priority 2014, published 2015).

Columns and labels:
[1] = tested on: C2C12 skeletal muscle cells; test: Glycogen content assay in C2C12 myotubes; assay type: cell-based; conditions: 30 minutes
Method: (§1) The C2C12 skeletal muscle cells were cultured in Dulbecco's modified Eagle's medium (DMEM; Gibco/Invitrogen, Carlsbad, Calif.), and the human hepatocellular carcinoma cell line, Hep3B, was cultured in Roswell Park Memorial Institute medium 1640 (RPMI 1640 medium; Gibco/Invitrogen, Carlsbad, Calif.). Cells were cultured at 37° C. in the humidified incubator supplied with 5% CO2. Culture mediums were supplemented with 4.5 mgmL^−1 glucose, penicillin 100 IUmL^−1, streptomycin 100 μgmL^−1 and 10% fetal bovine serum (Gibco/Invitrogen, Carlsbad, Calif.). Only C2C12 cells were then switched to 2% horse serum for 3 days after reaching the 70% confluence. Myotubes formation was achieved after 4 days of incubation, and the cells were used for subsequent experiments. Culture mediums were replaced by serum free DMEM or RPMI for 24 h before experiments (see e.g., procedure described in Sultan et al., 2006).
(§2) C2C12 and Hep3B cells were treated with 1 nM insulin, 100 μM metformin, and the assigned concentration of borapetoside A for 30 minutes. To develop the insulin resistance state of cells, C2C12 cells were incubated with IL-6 at 20 ngmL^−1 for 1 hour. Later, the cells were treated with 1 nM insulin, 100 μM metformin, and the assigned concentration of borapetoside A for 30 minutes. After the assigned treatment, cells were washed twice with phosphate buffered saline (PBS). Glycogen content was measured as previously described, with some modifications (see e.g., Savage et al., 2008). The protein concentrations of the cell lysates were determined by using Pierce BCA Protein Assay Kit (Thermo-Scientific, Rockford, Ill.). The glycogen content of each sample was normalized by total protein.

[2] = tested on: human hepatocellular carcinoma cell line, Hep3B; test: Glycogen content assay in Hep3B cells; assay type: cell-based; conditions: 30 minutes
Method: as §1, §2

[3] = tested on: normal mice, mice with type 1 DM, mice with type 2 DM; test: Plasma glucose after single intraperitoneal borapetoside A (acute study); assay type: in vivo, ICR mice; conditions: 60 min; for dose giving significant decrease of plasma glucose level: single i.p.
Method: The 4-week-old male ICR mice were purchased from the Animal Center of the College of Medicine, National Taiwan University (Taipei, Taiwan) with delicate humane care. This animal study was conducted by following the University ethical guidelines and the ‘Guide for the Care and Use of Laboratory Animals’ published by the US National Institutes of Health (NIH publication no. 85-23, revised 1996). The animal experiments were approved by the Institutional Animal Care and Use Committee (IACUC) of the National Taiwan University (IACUC No. 20110073). Animals were housed in a room at the constant temperature, 22±1° C., with 12 hours light and dark cycles.
After three days of acclimatization, the mice had free access to a standard rodent chow (normal mice), a standard rodent chow after single 250 mgkg^−1 streptozotocin (STZ) intraperitoneal injection (T1DM mice), and a fat-rich chow diet and fructose-sweetened water (T2DM mice) for 4 weeks. The induction of Type 1 DM was assessed and confirmed when the mice had plasma glucose levels ≧350 mgdL^−1, accompanied with polyuria, hyperphagia and decreased body weight. The induction Type 2 DM in the mice was assessed by measuring fasting plasma glucose levels and confirmed when plasma glucose level was ≧150 mgdL^−1 after the 4-week induction. The animals were assigned randomly into three groups, with seven animals in each group. In group I, the mice were treated with vehicle, 2% DMSO in normal saline, as the negative control. In group II, the mice were intraperitoneally treated with borapetoside A (0.1-10 mgkg^−1). […]
Blood samples were collected from the orbital vascular plexus of the mice under anesthesia. […] The plasma glucose concentration was measured by Glucose Kit Reagent (Biosystems S. A., Barcelona, Spain) following the manufacturer's instructions, and the insulin levels were estimated using mouse insulin ELISA kit (Mercodia AB, Uppsala, Sweden).

[4] = tested on: normal mice and mice with type 2 DM; test: Intraperitoneal glucose tolerance test (IPGTT); assay type: in vivo, ICR mice
Method: After three days of acclimatization, the mice had free access to a standard rodent chow (normal mice), a standard rodent chow after single […] streptozotocin (STZ) intraperitoneal injection (T1DM mice), and a fat-rich chow diet and fructose-sweetened water (T2DM mice) for 4 weeks. The induction of Type 1 DM was assessed and confirmed when the mice had plasma glucose levels ≧350 mgdL^−1, accompanied with polyuria, hyperphagia and decreased body weight. The induction Type 2 DM in the mice was assessed by measuring fasting plasma glucose levels and confirmed when plasma glucose level was ≧150 mgdL^−1 after the 4-week induction. The animals were assigned randomly into three groups, with seven animals in each group. In group I, the mice were treated with vehicle, 2% DMSO in normal saline, as the negative control. In group II, the mice were intraperitoneally treated with borapetoside A (0.1-10 mgkg^−1). In group Ill, the positive control, the mice received intraperitoneally metformin (300 mgkg^−1; Sigma Chemical Co., St. Louis, Mo., U.S.A.) or insulin (0.5 IUkg^−1; Insulin Actrapid® HM; Novo Nordisk, Denmark). In the acute study, mice under anesthesia received a single intraperitoneal administration of borapetoside A, negative control, or positive control. In the subacute study, mice received intraperitoneal administrations of borapetoside A, vehicle, or insulin twice a day for seven days.
Blood samples were collected from the orbital vascular plexus of the mice under anesthesia. Blood samples were then centrifuged at 13000 rpm for 5 min, and the plasma samples were collected and kept on ice prior to the assay. The plasma glucose concentration was measured by Glucose Kit Reagent (Biosystems S. A., Barcelona, Spain) following the manufacturer's instructions, and the insulin levels were estimated using mouse insulin ELISA kit (Mercodia AB, Uppsala, Sweden).
The mice were maintained under anesthesia throughout the procedure. Glucose (2.0 gkg^−1) was administered intraperitoneally. Blood samples were collected from the orbital vascular plexus at 0, 30, 60, 120 min. The concentrations of the plasma glucose were measured, and the values of AUC were calculated accordantly.

[5] = tested on: non-diabetic, T1DM and T2DM mice; test: Plasma glucose after bolus intraperitoneal borapetoside C; assay type: in vivo, ICR mice
Method: T1DM mice were induced by a known method. In brief, an intraperitoneal injection of streptozotocin (STZ; Sigma Chemical Co.; St. Louis, Mo.) at 150 mg/kg was performed in mice that were fasted for 48 h. The induction of T1DM was assessed and confirmed when the mice had plasma glucose levels ≧350 mg/dL, accompanied with polyuria, hyperphagia and decreased body weight. The control mice group received an injection of vehicle and then carried out for 4 weeks. T2DM mice were induced by maintaining on a fat-rich chow diet and fructose-sweetened water for 4 weeks from the age of 4-5 weeks according to previous methods. The induction T2DM mice were assessed by measuring fasting plasma glucose levels and confirmed when plasma glucose level was ≧150 mg/dL after a 4-week induction.
Blood samples were collected from the orbital vascular plexus of mice under anesthesia with sodium pentobarbital (80 mg/kg, intraperitoneal, Sigma Chemical Co., St. Louis, Mo., USA). Blood samples were then centrifuged at 13000 rpm for 5 min, and the plasma was kept on ice prior to the assay. The plasma glucose concentration was measured using commercial kits following manufacturer's instructions (BioSystems S. A., Barcelona, Spain).

SMILES | fold increase of glycogen ([1]; 10^−6 mol/L) | fold increase of glycogen ([1]; 10^−7 mol/L) | fold increase of glycogen ([1]; 10^−8 mol/L) | fold increase of glycogen content ([2]; 10^−5 mol/L) | fold increase of glycogen content ([2]; 10^−6 mol/L) | fold increase of glycogen content ([2]; 10^−7 mol/L) | dose giving significant decrease of plasma glucose level ([3]; mice with type 2 DM) | dose giving significant decrease of plasma glucose level ([3]; normal mice) | plasma glucose level ([3]; normal, type 1 DM and type 2 DM mice, 0.1-10.0 mgkg^−1 single i.p.) | increase of plasma glucose level at 30 min in IPGTT, compared to the vehicle group ([4]; normal and type 2 DM mice, borapetoside A 0.1, 1 and 10 mgkg^−1, metformin) | area under the curve (AUC) in IPGTT ([4]; normal mice, 0.1 mgkg^−1) | area under the curve (AUC) in IPGTT ([4]; normal mice, 1 mgkg^−1) | area under the curve (AUC) in IPGTT ([4]; normal mice, 10 mgkg^−1) | area under the curve (AUC) in IPGTT ([4]; type 2 DM bearing mice, 0.1 mgkg^−1) | area under the curve (AUC) in IPGTT ([4]; type 2 DM bearing mice, 1 mgkg^−1) | area under the curve (AUC) in IPGTT ([4]; type 2 DM bearing mice, 10 mgkg^−1) | plasma glucose concentrations ([5]; bolus i.p. 0.5 to 5 mg/kg, non-diabetic, T1DM and T2DM mice) | plasma glucose levels ([5]; borapetoside C at 0.1 mg/kg alone)
C[C@@]12C[C@@H](c3ccoc3)OC(=O)[C@@H]1C[C@@H]1OC(=O)[C@@]3(O)[C@@H](O[C@@H]4O[C@H](CO)[C@@H](O)[C@H](O)[C@H]4O)CC[C@@H]2[C@@]13C [Borapetoside A, borapetoside A] | 1.49±0.15 fold | 1.28±0.04 fold | 1.53±0.10 fold | 1.54±0.11 fold | 1.39±0.12 fold | 1.46±0.05 fold | higher than 0.3 mgkg^−1 | ≥ 1 mgkg^−1 | lowered the plasma glucose level | significantly suppressed | 78.8±3.0 % of vehicle control | 69.9±7.1 % of vehicle control | 68.9±3.5 % of vehicle control | 74.9±4.5 % of vehicle control | 71.1±3.2 % of vehicle control | 68.9±1.9 % of vehicle control |  | 
COC(=O)C1=CCC[C@H]2[C@]3(C)C[C@@H](c4ccoc4)OC(=O)[C@@H]3C[C@@H](O[C@@H]3O[C@H](CO)[C@@H](O)[C@H](O)[C@H]3O)[C@@]12C [Borapetoside C, borapetoside C] |  |  |  |  |  |  |  |  |  |  |  |  |  |  |  |  | significantly lowered plasma glucose concentrations in a dose-dependent manner | did not alter the plasma glucose levels
